Source: article PMC10385664, “Projection of Target Drug Particle Size in Oral Formulations Using the Refined Developability Classification System (rDCS)” (Pharmaceutics, 2023)

Test system: Caco-2 cells
Assay: Caco-2 permeability assay (pH 6.5/7.4 gradient, ± elacridar)
Details: Caco-2, 10 µM, apical pH 6.5 / basolateral pH 7.4, 120 min, without inhibitor
Procedure: In vitro permeability studies were performed at Cyprotex Discovery Ltd. (Macclesfield, UK) using a high-throughput Caco-2 permeability assay. Permeability at 37 °C was assessed from the apical to basolateral side (A⟹B) and in opposite direction (B⟹A) applying a pH gradient with pH 6.5 in the apical and pH 7.4 in the basolateral compartment (Hanks Balanced Salt Solution, HBSS). After an incubation of 120 min, samples were diluted for analysis via liquid chromatography coupled with tandem mass spectrometry (LC-MS/MS). […] Experiments were performed in absence and presence of the P-glycoprotein (P-gp) inhibitor elacridar (10 µM) to study transporter-mediated efflux effects. The dosing solutions contained the API (10 µM) in HBSS, and DMSO in a concentration of ≤1% v/v. Lucifer yellow (100 µM) was included as fluorescent integrity marker. Further experimental details are provided in Supplementary Materials.
The apparent permeability coefficients (Papp) were calculated according to Equation (27):(27) Papp=dQ/dt/C0·A where dQ/dt is the permeation rate of the API across the cell monolayer, C0 is the starting concentration of the API in the dosing solution and A is the surface area of the cell monolayer. The efflux ratios (ERs) were calculated from the B⟹A and A⟹B Papp values to estimate whether P-gp mediated efflux was involved in the transport of the APIs. The mass balance (% recovery) was calculated from the sum of the API recovered from the acceptor and donor compartments at the end of the experiment, divided by the initial donor amount.
Table S6. Gradient of the UPLC method for analysis of lemborexant.
Table S7. Gradient of the UPLC method for analysis of istradefylline.
S.2.5. rDCS Standard Investigations: Caco‐2 permeability studies
Caco‐2 cells were obtained from the American Type Culture Collection (ATCC, Manassas, VA, USA) and used between passage numbers 40 to 60. The cells were seeded onto Millipore Multiscreen Transwell plates at a density of 1 x 10^5 cells/cm2 and cultured in Dulbeccoʹs Modified Eagleʹs Medium (DMEM). The medium was changed every two or three days. Ce l l culture was carried out at 37 °C in an atmosphere of 5 % CO2 with a relative humidity of 95 %. The permeability assay was performed on day 20.
In vitro permeability was assessed wit h a high‐throughput Caco‐2 permeability assay. The assay was prepared by rinsing apical and basolateral monolayer surfaces twice with Hanks Balanced Salt Solution (HBSS) at the desired pH and 37 °C. Subsequently, cells in the apical and basolateral compartments were incubated with HBSS at the desired pH for 40 min. A pH gradient with pH 6.5 in the apical compartment and pH 7.4 in the basolateral compartment was applied. Dosing solutions containing the API (10 μ M) were prepared by diluting a concentrated API solution in DMS O with HBSS. The final DMSO concentration was ≤ 1% v/v. Lucifer yellow (100 μM) was included in the dosing solution as fluorescent integrity marker. For the assessment of the permeability from the apical to basolateral side (A⟹B), HBSS in the apical compartment was replaced with the dosing solution. The apical inserts were placed into a companion plat e containing fresh buffer with 1% v/ v DMSO. For the assessment of the permeability from the basolateral to […]
apical side (B⟹A), HBSS was removed from the companion plate and replaced with the solution of drug in HBSS. Fresh HBSS was added to the apical insert, which was then placed into the companion plate.
Experiments were performed in absence and presence of the P‐glycoprotein (P‐gp) inhibitor elacridar (10 μM) to study transporter‐mediated efflux effects. In those experiments, elacridar was included in both compartments during the equilibration time and assay. The starting concentration (C0) was confirmed by sampling from the dosing solution immediately before dosing into the cell pl ates. After incubation of 120 minutes, the apical inserts and companion plates were separated for sampling from both compartments.

CC(C)NCC(O)COc1cccc2ccccc12 (stereo not shown) [propranolol]
Papp(A⟹B): 13.0 ± 0.7 ×10^−6 cm/s
